What all share (format): cell-based, human
The test system of assay [1] is platelet integrin receptor. Put plainly: Platelet spreading on immobilized fibrinogen and vWF. As to conditions: control plasma platelets and ES-PLTs on fibrinogen, stimulated with agonist. The procedure: Chamber slides with microtiter wells (Nalgen Nunc, Rochester, N.Y.) were coated with […] fibrinogen (Sigma) in 0.1M NaHCO3 (pH 8.3) at 4° C. overnight. Washed human peripheral platelets or hESC-platelets (1×10^7/mL) were allowed to adhere and spread on fibrinogen-coated wells at 37° C. for 90 minutes. In some samples, platelets were preincubated with an integrin antagonist, RGDS peptide, for 5 minutes before loading. In other samples, platelets were mixed with ADP (10 μM) or thrombin (1 U/ml) (Sigma-Aldrich, St Louis, Mo.), and immediately loaded on to fibrinogen-coated wells. […] Adherent platelets were viewed with an Olympus BX51 fluorescence microscope (MVI, Avon, Mass.) using a PlanApo lens at 100×/1.40 oil objective. […]
Integrin outside-in signaling functional property in ES-PLTs was further assessed by spreading assay on immobilized fibrinogen on glass slides. […]
Chamber slides with microtiter wells (Nalgen Nunc, Rochester, N.Y.) were coated with 100 μg/mL fibrinogen or vWF ([…]) (Sigma-Aldrich, St Louis, Mo.) in 0.1M NaHCO3 (pH 8.3) at 4° C. overnight. […] Adherent platelets were viewed with an Olympus BX51 fluorescence microscope using a PlanApo lens at 100×/1.40 oil objective. […]

Assay [2] relates to hESC-PLTs. The experiment in a line: CD41a/CD42b expression on hESC-PLTs generated under feeder-free conditions (FACS). The following applies: GM6001 100 μM during late stage of differentiation. Here is the method:
To examine whether functional platelets were generated under feeder-free conditions, the inventors examined CD41a/CD42b expression on hESC-derived platelets (hESC-PLTs) by FACS analyses. […] However, less than 5% of these hESC-PLTs were CD42b positive. […] Supplement of GM6001 (100 μM) during late stage of human ESC-PLTs differentiation increased CD41a and CD42b double positive hESC-PLTs to about 15%. The function of feeder-free generated hESC-PLTs was assessed by integrin dependent spreading assay on immobilized fibrinogen and vWF. Anti-human CD41a antibody and DAPI staining were used to identify platelets.
Hemangioblast/BC generation from hESC lines (HuES-3, H7 [WA07], MA01, and MA09) was performed as previously reported^17:20. BCs from day 6 to 8 cultures were purified and plated (1 to 5×10^5/ml) in Stemline II media supplemented with 50 ng/ml TPO, 20 ng/ml SCF and 20 ng/ml IL-11 (Peprotech) to induce BC differentiation toward MKs. Half of the MK culture media was replaced with fresh media every 2 or 3 days. […]
Cells from blast cultures or MK cultures are monitored routinely by flow cytometry analyses on FACSCalibur (Becton Dickinson) or Accuri C6 Cytometer (Accuri Cytometers). […] The samples were then analyzed with FACSCalibur, and data analyzed using Cellquest or Flowjo software. […] Cellular DNA content was analyzed on an Accuri C6 cytometer.

Assay [3] deals with CD41a+ megakaryocytes from hESC derived BCs. The experiment in a line: Megakaryocyte (MK) differentiation/expansion culture from hESC derived blast cells, CD41a+ cell count. As to conditions: for yields / expansion of CD41a+ megakaryocytes: serum-free Stemline II MK culture of day 6 to 8 BCs, factors compared to TPO and SCF only, 4 day liquid culture. The procedure: BCs from day 6 to 8 blast cultures were purified and plated (1 to 5×10^5/ml) in Stemline II media supplemented with 50 ng/ml TPO, 20 ng/ml SCF and other cytokines to induce BC differentiation toward MKs. Half of the MK culture media was replaced with fresh media every 2 or 3 days.
In order to further direct the differentiation of megakaryocytes, day 6 to day 8 BCs from methylcellulose semi-solid cultures were harvested and then resuspended in serum-free media, i.e., Stemline II supplemented with cytokines for MK culture. The cell count of CD41a+ cells was used as readout to determine the expansion megakaryocytes during the suspension culture, which was calculated by multiplying the percentage of CD41a+(FACS) and total live cell count (Trypan blue exclusion). […] A panel of cytokines and factors were also tested in order to achieve high purity and the total yield of megakaryocytes from BCs. These factors including IL9 and BMP4 were previously reported as megakaryocyte promoting factors in other systems^21:22.
Certain factors, however, did slightly increase the percentage of CD41+ cells (not shown).

Assay [4] has as its system hESC derived blast cells (BCs). Put plainly: Blast culture, percentage of CD41a+ cells by FACS. The following applies: for percentage of CD41a+ cells at the end of blast culture: TPO 100 ng/ml and SCF 50 ng/ml together, second phase of EB formation and blast colony growth. The procedure:
The procedure for EB formation and BC generation were performed as previously reported^17:19. In brief, hESCs at 70% confluency were dissociated by 0.05% trypsin and plated in Ultra-Low dishes (Corning, N.Y.) with Stemline II (Sigma) medium supplemented with BMP-4, VEGF (50 ng/ml). Half of the medium was replaced after 48 hours with fresh medium containing the same cytokines plus bFGF 20 ng/ml, SCF, Flt3 ligand (FL) and Tpo (50 ng/ml each, R&D System). On day 4, EBs were collected and dissociated by 0.05% trypsin. Single-cell suspensions were obtained by passing the cells through 22-gauge needle and through a 40 μm cell strainer, collected by centrifugation, and resuspended in Stemline II media. Live cells were counted by trypan blue exclusion, and 1 to 2×10^5/ml were mixed with blast colony growth medium (BGM) as previously described, and plated in Ultra-Low dishes. Blast colonies were observed 3-4 days after plating, followed by rapid expansion.
Cells from blast cultures or megakaryocyte cultures are monitored routinely by flow cytometry analyses on FACS Caliber. Fluorochrome conjugated antibodies for lineage markers, CD41a, CD42a, CD42b and CD235a (BD Biosciences) were used to characterize the megakaryocyte and erythroid lineages. Antibodies were freshly prepared (1:100 dilution for CD42a and CD42b antibodies; 1:250 dilution for CD41a antibody; 1:2000 for CD235a antibody) in PBS with 5% new born calf serum. Typically 1 to 2×10^5 cells were used for antibody labeling. Cells were stained in 100 μl antibody cocktail for 1 hour on ice, then washed twice with buffer, and resuspended in 250 μl buffer supplemented with 1 μg/ml propidium iodide. To detect the expression level of HLA-ABC, platelets were incubated with a fluorescein isothiocyanate (FITC)-conjugated antihuman HLA-ABC antibody or FITC-conjugated mouse immunoglobulin G (IgG) as a control. The samples were then analyzed using a flow cytometer (FACSCalibur, Becton Dickinson), and data were analyzed using Cellquest or Flowjo software. Cell sorting was performed on BD FACS Aria system at UMASS Medical School Core Facility. […]
Background: In flow cytometry, cells or beads pass a laser one at a time.

For the molecule `Nc1ncnc2c1ncn2[C@@H]1O[C@H](COP(=O)(O)OP(=O)(O)O)[C@@H](O)[C@H]1O` [ADP], the “lamellipodia and actin stress fiber formation” value in assay [1] is “enhanced”.

For the molecule `CNC(=O)[C@H](Cc1c[nH]c2ccccc12)NC(=O)[C@@H](CC(=O)NO)CC(C)C` [GM6001], the “CD41a and CD42b double positive hESC-PLTs” value in assay [2] is “about 15%”.

As for `C[C@@H](N)[C@H]1CC[C@H](C(=O)Nc2ccncc2)CC1` [Y27632], in assay [3] (10 μM during 4 day MK culture), the “CD41+ cell count at the end of 4 day culture” value was “reduced” and the “percentage of polyploid cells” value is on record as “dramatically increased”.

As to “IL9: previously reported megakaryocyte promoting factor”, the “yields / expansion of CD41a+ megakaryocytes” value (from here on “yields / expansion”) in assay [3] is “did not show obvious effects”.

As for IL 6: cytokine tested in MK culture, in assay [3], the “yields / expansion” value is recorded as “slightly increased”.

As to SCF: cytokine in MK culture media, the “yields / expansion” value in assay [3] was “significantly increased”. In assay [4], the “percentage of CD41a+ cells at the end of blast culture” value is “increased”.

Turning to TPO: cytokine in MK culture media, in assay [3], the “yields / expansion” value was “not sufficient”. For the same molecule, the “percentage of CD41a+ cells at the end of blast culture” value in assay [4] is recorded as “increased”.

Regarding VEGF, in assay [3], the “yields / expansion” value is listed as “slightly increased”.

For the molecule “bFGF: growth factor tested in MK culture”, the “yields / expansion” value in assay [3] is given as “slightly increased”.

Consider thrombin, for which the “lamellipodia and actin stress fiber formation” value in assay [1] is on record as “enhanced”.

B1: IL11: cytokine reported to enhance expansion and maturation of megakaryocytes (protein, UniProt P20809 22-199, looked up)
Interleukin-11: PGPPPGPPRVSPDPRAELDSTVLLTRSLLADTRQLAAQLRDKFPADGDHNLDSLPTLAMSAGALGALQLPGVLTRLRADLLSYLRHVQWLRRAGGSSLKTLEPELGTLQARLDRLLRRLQLLMSRLALPQPPPDPPAPPLAPPSSAWGGIRAAHAILGGLHLTLDWAVRGLLLLKTRL
Consider B1, for which the “yields / expansion” value in assay [3] is given as “slightly increased”. Besides, the “ratio of CD41a+ cells in day 6 to 8 blast cultures” value in assay [4] (IL-11 20 ng/ml in BGM medium) is “further increased”.

B2: BMP4: previously reported megakaryocyte promoting factor (protein, UniProt P12644 293-408, looked up)
Bone morphogenetic protein 4: SPKHHSQRARKKNKNCRRHSLYVDFSDVGWNDWIVAPPGYQAFYCHGDCPFPLADHLNSTNHAIVQTLVNSVNSSIPKACCVPTELSAISMLYLDEYDKVVLKNYQEMVVEGCGCR
As for B2, the “yields / expansion” value in assay [3] is given as “did not show obvious effects”.

The values are drawn from US9988603B2, “Large scale generation of functional megakaryocytes and platelets from human embryonic stem cells under stromal-free conditions” (Stem Cell & Regenerative Medicine International, priority 2009, dated 2018).
